Activity calls are given as the source filed them.
Legend:
[1] = biological target: T1, Caspase-3 (Homo sapiens, UniProt P42574); format: functional;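 further: Dose-response selectivity test against caspase-3 for candidate inhibitors of sentrin-specific proteases (SENPs)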
T1 sequence (P42574 whole entry): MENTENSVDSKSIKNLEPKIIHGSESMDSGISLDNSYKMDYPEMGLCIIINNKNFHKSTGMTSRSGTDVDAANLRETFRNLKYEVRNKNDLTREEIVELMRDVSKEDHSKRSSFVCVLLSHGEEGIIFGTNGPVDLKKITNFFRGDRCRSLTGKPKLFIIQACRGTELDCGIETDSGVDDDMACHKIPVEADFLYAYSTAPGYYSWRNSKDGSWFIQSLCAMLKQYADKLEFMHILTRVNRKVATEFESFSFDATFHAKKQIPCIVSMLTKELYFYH

[2] = biological target: T2, Sentrin-specific protease 7 (Homo sapiens, UniProt Q9BQF6); format: functional;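 further: Luminescence-based dose-response confirmation of ultra-high-throughput screening hits, measuring inhibition of SENP7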
T2 sequence (Q9BQF6 whole entry): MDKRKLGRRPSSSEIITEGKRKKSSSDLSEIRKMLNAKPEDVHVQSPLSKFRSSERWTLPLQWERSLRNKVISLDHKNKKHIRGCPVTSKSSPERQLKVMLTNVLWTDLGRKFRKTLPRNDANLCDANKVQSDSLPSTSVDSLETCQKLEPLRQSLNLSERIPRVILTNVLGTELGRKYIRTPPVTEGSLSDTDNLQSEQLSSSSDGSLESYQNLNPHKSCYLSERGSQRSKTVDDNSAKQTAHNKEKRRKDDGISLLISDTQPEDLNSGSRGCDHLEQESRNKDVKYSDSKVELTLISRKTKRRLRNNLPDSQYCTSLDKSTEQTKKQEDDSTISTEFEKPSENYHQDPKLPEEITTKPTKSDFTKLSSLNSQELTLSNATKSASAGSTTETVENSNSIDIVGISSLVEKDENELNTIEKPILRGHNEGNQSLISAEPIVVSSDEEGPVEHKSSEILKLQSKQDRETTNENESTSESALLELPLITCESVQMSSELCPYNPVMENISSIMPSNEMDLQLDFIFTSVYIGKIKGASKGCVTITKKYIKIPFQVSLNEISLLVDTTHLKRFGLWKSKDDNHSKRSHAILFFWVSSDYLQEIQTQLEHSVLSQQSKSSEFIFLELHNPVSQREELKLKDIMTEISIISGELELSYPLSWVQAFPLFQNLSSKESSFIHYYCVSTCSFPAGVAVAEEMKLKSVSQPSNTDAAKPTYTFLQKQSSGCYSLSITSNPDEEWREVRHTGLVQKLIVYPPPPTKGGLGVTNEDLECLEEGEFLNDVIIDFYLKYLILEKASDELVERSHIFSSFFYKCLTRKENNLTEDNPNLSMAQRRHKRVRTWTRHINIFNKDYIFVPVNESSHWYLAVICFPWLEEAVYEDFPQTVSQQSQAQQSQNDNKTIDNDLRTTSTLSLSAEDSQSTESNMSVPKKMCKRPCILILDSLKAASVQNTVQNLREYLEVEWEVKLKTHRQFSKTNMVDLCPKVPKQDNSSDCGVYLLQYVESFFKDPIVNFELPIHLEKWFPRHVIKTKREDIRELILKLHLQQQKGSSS

[3] = biological target: T3, Sentrin-specific protease 6 (Homo sapiens, UniProt Q9GZR1); format: functional;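 further: Luminescence-based dose-response confirmatory assay of SENP6 inhibition, following up an ultra-high-throughput screen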
T3 sequence (Q9GZR1 whole entry): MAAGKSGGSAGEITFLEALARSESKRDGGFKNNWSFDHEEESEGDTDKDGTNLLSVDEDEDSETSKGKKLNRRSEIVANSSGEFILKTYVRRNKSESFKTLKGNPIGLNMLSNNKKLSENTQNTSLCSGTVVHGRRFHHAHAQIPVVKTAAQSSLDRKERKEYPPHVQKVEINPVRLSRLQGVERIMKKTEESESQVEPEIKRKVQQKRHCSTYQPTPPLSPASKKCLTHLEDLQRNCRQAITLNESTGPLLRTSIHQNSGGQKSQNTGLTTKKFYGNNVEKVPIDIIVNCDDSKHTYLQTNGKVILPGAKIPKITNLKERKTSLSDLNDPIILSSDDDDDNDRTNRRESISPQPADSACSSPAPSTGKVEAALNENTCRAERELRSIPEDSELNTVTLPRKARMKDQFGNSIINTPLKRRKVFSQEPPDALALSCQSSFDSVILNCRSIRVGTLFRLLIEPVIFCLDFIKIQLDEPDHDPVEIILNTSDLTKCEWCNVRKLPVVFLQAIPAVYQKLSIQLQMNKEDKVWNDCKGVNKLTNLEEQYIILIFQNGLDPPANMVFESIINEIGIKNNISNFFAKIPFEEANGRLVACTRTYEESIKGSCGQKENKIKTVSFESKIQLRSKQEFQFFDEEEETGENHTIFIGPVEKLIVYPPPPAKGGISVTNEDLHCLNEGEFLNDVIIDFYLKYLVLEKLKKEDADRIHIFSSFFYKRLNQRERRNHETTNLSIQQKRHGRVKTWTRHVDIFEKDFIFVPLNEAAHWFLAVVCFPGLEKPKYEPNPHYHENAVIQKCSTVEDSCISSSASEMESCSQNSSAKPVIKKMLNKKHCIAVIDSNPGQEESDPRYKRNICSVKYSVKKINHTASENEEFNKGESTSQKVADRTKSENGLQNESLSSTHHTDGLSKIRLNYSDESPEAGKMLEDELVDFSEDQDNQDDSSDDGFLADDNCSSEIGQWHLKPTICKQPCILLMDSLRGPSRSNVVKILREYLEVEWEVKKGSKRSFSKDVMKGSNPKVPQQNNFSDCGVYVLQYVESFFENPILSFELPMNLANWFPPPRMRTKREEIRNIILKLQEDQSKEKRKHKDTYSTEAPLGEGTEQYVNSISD

[4] = biological target: T4, Sentrin-specific protease 8 (Homo sapiens, UniProt Q96LD8); format: functional;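 further: luminescence read-out of SENP8 inhibition, dose-response confirmation following an ultra-high-throughput screen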
T4 sequence (Q96LD8 whole entry): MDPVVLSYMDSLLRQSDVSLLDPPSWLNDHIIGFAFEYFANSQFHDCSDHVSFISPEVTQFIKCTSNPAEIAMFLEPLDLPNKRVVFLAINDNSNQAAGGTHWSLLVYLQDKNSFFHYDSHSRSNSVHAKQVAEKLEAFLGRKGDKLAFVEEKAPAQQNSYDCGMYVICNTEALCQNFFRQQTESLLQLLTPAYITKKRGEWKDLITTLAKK

[5] = Luminescence Cell-Based Dose Confirmation HTS to Identify Activators of 5'UTR Stem-Loop Driven Alpha-Synuclein mRNA Translation in H4 Neuroglioblastoma Cells. [Related pubchem assays: 1829 (Project Summary), 1814 (Primary HTS)]; format: functional
[6] = Luminescence Cell-Based Dose Response HTS to Identify Activators of Luciferase Translation or Activity in H4 […] Cells. [Related pubchem assays: 1829 (Project Summary), 1814 (Primary HTS)]; format: functional
[7] = system: H4; experiment: Luminescence Cell-Based Dose Response HTS to Identify Activators of 5'UTR Stem-Loop Driven Prion Protein mRNA Translation in H4 Neuroglioblastoma Cells. [Related pubchem assays: 1829 (Project Summary), 1814 (Primary HTS)]; format: functional; details: Homo sapiens
[8] = system: HeLa; experiment: ATP-based viability loss in HeLa cells – cell-based, CellTiter-Glo luminescence, cherry-pick samples, cytotoxicity control for MITF activator project, dose response (AID 540259); format: functional; details: Homo sapiens
[9] = biological target: T5, Corticotropin-releasing factor receptor 2/Corticotropin-releasing factor-binding protein (Homo sapiens, UniProt P24387+Q13324); experiment: Dose Response confirmation of uHTS hits for small molecule antagonists of the CRF-binding protein and CRF-R2 receptor complex.; format: functional; details: read-out: IC50_Mean
T5 sequence (Q13324 whole entry): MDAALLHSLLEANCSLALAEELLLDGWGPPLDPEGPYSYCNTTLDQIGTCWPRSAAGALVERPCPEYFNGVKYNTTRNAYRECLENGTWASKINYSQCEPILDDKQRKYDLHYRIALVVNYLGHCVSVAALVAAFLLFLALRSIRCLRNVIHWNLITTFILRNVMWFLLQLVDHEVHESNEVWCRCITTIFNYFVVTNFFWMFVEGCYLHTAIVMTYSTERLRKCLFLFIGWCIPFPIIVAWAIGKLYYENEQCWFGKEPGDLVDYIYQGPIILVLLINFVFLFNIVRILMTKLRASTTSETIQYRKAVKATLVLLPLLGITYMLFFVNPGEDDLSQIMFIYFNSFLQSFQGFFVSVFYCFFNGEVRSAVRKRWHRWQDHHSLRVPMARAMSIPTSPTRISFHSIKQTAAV
T5 sequence (P24387 whole entry): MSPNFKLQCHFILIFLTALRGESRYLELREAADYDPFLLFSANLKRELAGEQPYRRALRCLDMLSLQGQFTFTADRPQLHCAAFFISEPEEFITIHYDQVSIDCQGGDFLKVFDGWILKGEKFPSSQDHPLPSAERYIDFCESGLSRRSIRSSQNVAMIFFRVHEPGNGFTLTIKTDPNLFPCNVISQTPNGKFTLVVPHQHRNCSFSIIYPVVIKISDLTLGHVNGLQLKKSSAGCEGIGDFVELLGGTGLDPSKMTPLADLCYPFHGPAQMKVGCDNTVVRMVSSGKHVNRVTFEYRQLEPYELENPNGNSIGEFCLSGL

[10] = biological target: T5, Corticotropin-releasing factor receptor 2/Corticotropin-releasing factor-binding protein; experiment: activators of CRF receptor 2 with binding protein – uHTS hits, confirmation (AID 602473); format: functional; details: read-out: EC50_Mean
[11] = blockers of CRF-binding protein–CRF-R2 complex – cell-based, uHTS hits, 384-well, dose response (AID 651639); format: functional, Homo sapiens; details: read-out: IC50_Mean
[12] = blockers of HIV-1 envelope-mediated cell-cell fusion – cherry-pick, dose response (AID 652057); format: functional, cell-based
[13] = viability loss in CEM21 cells – cell-based, CellTiter-Glo luminescence, cherry-picked, cytotoxicity control for viral fusion inhibitor project, dose response (AID 652042); format: functional;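 further: potency for signal decrease meaning cytotoxicity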
[14] = blockers of HIV-1 ZM109 envelope-driven cell-cell fusion – HeLa effector, CEM target cells, luciferase, cherry-pick, dose response (AID 652058); format: functional, cell-based;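 further: luciferase signal from HIV-1 Env mediated cell-cell fusion of effector and target cells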
[15] = off-target signal loss in HeLa-CEM21 co-culture – HeLa F-luc CTL cells, cherry-picked, counter-screen for HIV-1 Env fusion inhibitor project, dose response (AID 652040); format: functional, cell-based;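 further: potency for signal decrease marking cytotoxic or nonspecific inhibition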
[16] = HIV-1 AD8 envelope cell-cell fusion blockers – cherry-pick, dose response (AID 652062); format: functional, cell-based;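 further: luciferase signal from cell-cell fusion driven by HIV-1 clade B AD8 Env; potency is for inhibitors of fusion seen as a drop in luminescence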
[17] = biological target: Glucose-6-phosphate 1-dehydrogenase (Homo sapiens, UniProt P11413); experiment: inhibition of Homo sapiens G6PD, dose series – biochemical, fluorescence, selectivity assay for P. falciparum G6PD inhibitor project, dose response (AID 504792); format: functional
Chain of Glucose-6-phosphate 1-dehydrogenase (P11413 whole entry): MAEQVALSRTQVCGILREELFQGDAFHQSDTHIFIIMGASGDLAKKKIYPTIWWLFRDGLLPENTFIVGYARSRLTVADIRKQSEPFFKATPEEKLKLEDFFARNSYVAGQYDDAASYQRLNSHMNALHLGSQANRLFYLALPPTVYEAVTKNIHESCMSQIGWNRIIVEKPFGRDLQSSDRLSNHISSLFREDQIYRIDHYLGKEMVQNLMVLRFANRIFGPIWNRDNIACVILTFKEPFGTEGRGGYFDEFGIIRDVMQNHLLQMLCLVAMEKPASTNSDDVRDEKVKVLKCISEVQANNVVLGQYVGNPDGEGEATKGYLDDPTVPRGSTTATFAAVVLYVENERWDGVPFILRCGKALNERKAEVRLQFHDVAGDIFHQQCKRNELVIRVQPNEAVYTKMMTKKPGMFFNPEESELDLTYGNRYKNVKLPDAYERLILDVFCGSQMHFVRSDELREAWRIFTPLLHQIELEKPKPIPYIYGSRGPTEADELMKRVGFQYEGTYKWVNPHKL

[18] = biological target: Genome polyprotein (dengue virus type 2, UniProt P29990); experiment: flavivirus cap methylation enzyme inhibition – biochemical, confirmation dose response, primary screen (AID 588689); format: functional
Chain of Genome polyprotein (P29990 2492-3391 limits assumed): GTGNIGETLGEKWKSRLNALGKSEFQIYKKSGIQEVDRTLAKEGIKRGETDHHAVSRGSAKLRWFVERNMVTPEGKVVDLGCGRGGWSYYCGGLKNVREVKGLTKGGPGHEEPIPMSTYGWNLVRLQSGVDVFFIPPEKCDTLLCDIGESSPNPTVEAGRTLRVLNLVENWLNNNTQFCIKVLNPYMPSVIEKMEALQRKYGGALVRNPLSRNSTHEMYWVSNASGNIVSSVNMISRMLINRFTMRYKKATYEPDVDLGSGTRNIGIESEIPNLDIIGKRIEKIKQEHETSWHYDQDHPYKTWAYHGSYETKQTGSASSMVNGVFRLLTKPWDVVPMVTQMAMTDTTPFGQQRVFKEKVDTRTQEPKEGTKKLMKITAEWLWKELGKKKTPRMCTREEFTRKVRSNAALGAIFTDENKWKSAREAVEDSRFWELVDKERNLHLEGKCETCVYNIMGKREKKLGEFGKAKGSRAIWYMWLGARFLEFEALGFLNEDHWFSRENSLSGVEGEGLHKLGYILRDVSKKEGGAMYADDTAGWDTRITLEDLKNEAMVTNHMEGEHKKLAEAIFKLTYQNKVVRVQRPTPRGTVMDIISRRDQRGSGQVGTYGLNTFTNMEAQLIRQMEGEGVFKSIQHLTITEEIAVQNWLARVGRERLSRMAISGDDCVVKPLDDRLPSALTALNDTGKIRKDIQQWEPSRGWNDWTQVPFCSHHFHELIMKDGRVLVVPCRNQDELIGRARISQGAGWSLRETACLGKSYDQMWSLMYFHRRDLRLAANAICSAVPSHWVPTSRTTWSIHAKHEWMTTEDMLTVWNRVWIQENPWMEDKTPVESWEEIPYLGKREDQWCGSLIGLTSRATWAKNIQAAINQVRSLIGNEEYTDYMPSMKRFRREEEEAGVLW

[19] = system: SN12K1; experiment: cells; format: functional; details: Homo sapiens
[20] = system: Vero; experiment: cells; format: functional; details: Chlorocebus sabaeus

SMILES: CN(C(=O)c1ccccc1)c1nc2ccccc2s1
- IC50 [1]: 15.6 µM (active)
- IC50 [2]: 6.81 µM (active)
- IC50 [3]: 21.1 µM (active)
- IC50 [4]: 50.4 µM (active)

SMILES: CC1CCC(NC(=O)c2ccc(NS(=O)(=O)c3ccc4[nH]c(O)nc4c3)cc2)CC1 (configuration not stated)
- EC50 [5]: 23.4 µM (active)
- EC50 [6]: 27.8 µM (active)
- EC50 [7]: 8.97 µM (active)
- AC50 [8]: 53.8 µM (active)

SMILES: Cc1cc(C(F)(F)F)n(-c2nc(C(=O)N/N=C/c3ccc(F)cc3)cs2)n1
- IC50 [9]: 10.7 µM (active)
- EC50 [10]: > 53 µM (inactive)
- IC50 [11]: > 20 µM (inactive)

SMILES: COC(=O)[C@]12C[C@H](CC(=O)NCc3ccccc3)C(=O)N(CCC3=CCCCC3)C1=C[C@H](C(C)(C)C)O[C@@H]2C
- AC50 [12]: 1.76 µM (active)
- AC50 [13]: 32.7 µM (active)
- AC50 [14]: 3.2 µM (active)
- AC50 [15]: 2.75 µM (active)
- AC50 [16]: 4.31 µM (active)

SMILES: Cc1cc(O)c(C(C)C)cc1N=Cc1ccc([N+](=O)[O-])cc1
- IC50 [17]: 44.4 µM (inactive)
- IC50 [18]: 90.1 µM (active)

SMILES: Cn1c(=O)c2ncn(CC(=O)Nc3cccc(-c4nc5ccccc5s4)c3)c2n(C)c1=O
- IC50 [1]: 21.4 µM (active)
- IC50 [2]: 15.6 µM (active)
- IC50 [3]: 23.4 µM (active)
- IC50 [4]: 26.1 µM (active)

SMILES: Cc1cccnc1NC(=O)Nc1cccc(Cl)c1
- AC50 [8]: > 350 µM (inactive)

SMILES: CN1CCc2[nH]c3ccccc3c2C1
- GI50 [19]: > 100 µM (inactive)

SMILES: Cc1cccc(-c2nnc3sc(-c4ccccc4)nn23)c1
- AC50 [8]: 189 µM (active)

SMILES: CCN(CC)C(=O)c1cc2sc3ccccc3c2s1
- AC50 [8]: 46.9 µM (active)

SMILES: Cc1cc(N2CCCCC2)n2ncc(-c3ccccc3)c2n1
- IC50 [1]: 30.1 µM (active)
- IC50 [2]: 6.65 µM (active)
- IC50 [3]: 13.8 µM (active)
- IC50 [4]: 12.4 µM (active)

SMILES: CC(C)=C1C2CCC1C(C(=O)Nc1sc(C)c(-c3ccc(C(C)C)cc3)c1C(N)=O)C2C(=O)O (configuration not stated)
- IC50 [9]: 5.03 µM (active)
- EC50 [10]: 15.9 µM (active)
- IC50 [11]: 18.8 µM (active)

SMILES: Cc1cccc(-c2cc3nc(-c4ccccc4)cc(O)n3n2)c1
- IC50 [1]: 3.86 µM (active)
- IC50 [2]: 2.94 µM (active)
- IC50 [3]: 3.88 µM (active)
- IC50 [4]: 2.01 µM (active)

SMILES: O=C(COc1cccc2cccnc12)N/N=C/c1cccn1-c1ccc(F)cc1
- CC50 [20]: > 25 µM (active)

SMILES: CN(C)c1cccc(C(=O)OCC(=O)Nc2ccccc2Sc2ccccc2)c1
- IC50 [9]: 13.1 µM (active)
- EC50 [10]: > 53 µM (inactive)
- IC50 [11]: > 20 µM (inactive)

SMILES: COc1cc(C=O)ccc1OCc1cccc(Br)c1
- AC50 [8]: 85.9 µM (active)
